{
  "source": "patent US11634389B2",
  "about": "(priority 2018, dated 2023)",
  "tested_on": "Monilinia fructicola isolate",
  "assay": "Radial mycelial growth on SDHI-amended PDA, Monilinia fructicola isolate (FIG. 4)",
  "format": "cell-based",
  "settings": "versus positive control fluxapyroxad",
  "procedure": "FIG. 4 depicts the fungicidal performance of a compound according to the disclosure (“1831”) against Monilinia fructicola isolate against a blank control, as compared to fluxapyroxad, a commercially available fungicide (“fluxa”).\nThe inhibitory effects of these SDHI compounds were evaluated against the various pathogenic isolates grown on half-strength potato dextrose agar (PDA) amended with a given SDHI. SDHIs were formulated as 10,000 ppm stocks in DMSO. Inoculated media were prepared using a ratio of 12 g potato dextrose broth powder to 15 g agar to 1 L of deionized water. Upon autoclaving and cooling to 55° C., the media were inoculated with the SDHI compound of interest (1 mL of 10,000 ppm stock in 1 L media) then poured into plates. This method represented a 10 ppm trial for the SDHI compound. Mycelial plugs were cut from the leading growth of active fungal colonies (supported on full PDA media) and placed mycelia-down in the center of a plate. After an appropriate number of days (3-14 days, depending on pathogen), the radial growth was measured (average of three plates), and reported as the radial mycelial growth or as radial mycelial growth relative to a control. An analogous procedure was employed to determine the EC50 value by varying the concentration of the initial SDHI compound DMSO stock. […]",
  "data": [
    {"smiles": "Cn1ncc(C(=O)NC23CCC(c4ccccc42)C3(C)C)c1Cl", "note": "(stereo not shown) [compound 1831]", "values": [
      {"measurement": "radial growth relative to that seen with fluxapyroxad", "value": "about half"}
    ]}
  ]
}
